The record followed here is US8822503B2, “2-pyridone compounds” (Taisho Pharmaceutical Co., Ltd, priority 2009, dated 2014).

The target in this test is T1, human liver GK (Homo sapiens, UniProt P35557).
T1 construct: GST (glutathione S-transferase) (N); made in house; host or cells: E. coli
T1 sequence (P35557 1-466 isoform P35557-2): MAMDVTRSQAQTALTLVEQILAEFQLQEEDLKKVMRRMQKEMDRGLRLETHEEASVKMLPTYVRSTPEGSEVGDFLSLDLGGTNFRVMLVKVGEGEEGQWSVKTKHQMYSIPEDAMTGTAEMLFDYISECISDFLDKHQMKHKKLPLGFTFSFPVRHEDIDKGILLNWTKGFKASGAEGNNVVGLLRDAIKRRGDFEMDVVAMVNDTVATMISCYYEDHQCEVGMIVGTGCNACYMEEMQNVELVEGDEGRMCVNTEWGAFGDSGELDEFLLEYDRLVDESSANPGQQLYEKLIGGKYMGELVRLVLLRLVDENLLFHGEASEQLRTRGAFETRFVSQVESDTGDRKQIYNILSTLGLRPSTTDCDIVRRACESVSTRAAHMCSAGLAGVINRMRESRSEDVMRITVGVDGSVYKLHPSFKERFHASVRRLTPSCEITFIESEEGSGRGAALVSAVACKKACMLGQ
In words: GK activation test. The following applies: test compound concentration needed to activate 50% of maximum activation ability; 4 mM 14C-labeled glucose, 2 mM ATP, room temperature, 20 minutes. The test is classed as biochemical. The method, boiled down: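 GST-tagged human liver GK from E. coli (0.24 μg/well) with 4 mM 14C-glucose, 2 mM ATP in Hepes-KOH pH 7.1, KCl, MgCl2, DTT, 1% DMSO, 20 min room temperature. Labeled glucose 6-phosphate captured on anion resin, eluted and counted. EC50 = concentration giving half of maximal activation.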
Usually EC50 stands for the concentration at which the effect is half-maximal. Higher therefore signals lower potency in that assay. The compound `O=C1CC[C@H](CC(c2ccc(C(F)(F)F)c(Cl)c2)c2ccc(C3CC3)c(=O)[nH]2)N1` (single isomer, unassigned) [Example 4-255] displayed an EC50 of 3000 to 10000 nM.
Next, `CC(C)(C)c1ccc(/C(=C\CN2CCCCCCC2=O)c2ccc(Cl)c(=O)[nH]2)cc1` [Example 6-18, 1-[(2E)-3-(4-tert-Butylphenyl)-3-(5-chloro-6-oxo-1,6-dihydropyridin-2-yl)prop-2-en-1-yl]azocan-2-one]: 3000 to 10000 nM; `CC(C)CCOc1ccc(/C(=C\[C@H]2CCC(=O)N2)c2ccc(Cl)c(=O)[nH]2)cc1Cl` [Example 4-20, 3-Chloro-6-{(E)-1-[3-chloro-4-(3-methylbutoxy)phenyl]-2-[(2R)-5-oxopyrrolidin-2-yl]ethenyl}pyridin-2(1H)-one]: 10 to 500 nM.
Next, `O=C1CC[C@H](/C=C(\c2ccc(Cl)cc2)c2ccc(C3CC3)c(=O)[nH]2)N1` [Example 4-98, 6-{(E)-1-(4-Chlorophenyl)-2-[(2R)-5-oxopyrrolidin-2-yl]ethenyl}-3-cyclopropylpyridin-2(1H)-one]: 10 to 500 nM; `Cc1ccc(C(CCC2CCCC2)c2ccc(S(=O)(=O)C3CC3)cc2)[nH]c1=O` (centres unmarked) [Example 2-15, 6-{3-Cyclopentyl-1-[4-(cyclopropylsulfonyl)phenyl]propyl}-3-methylpyridin-2(1H)-one]: 10 to 500 nM.
In turn, `CCCOc1ccc(/C(=C\[C@H]2CCC(=O)N2)c2ccc(C3CC3)c(=O)[nH]2)cc1Cl` [Example 4-280, 6-{(E)-1-(3-Chloro-4-propoxyphenyl)-2-[(2R)-5-oxopyrrolidin-2-yl]ethenyl}-3-cyclopropylpyridin-2(1H)-one] came in with an EC50 of 10 to 500 nM.
Next, `O=C1CC[C@H](/C=C(\c2ccc(F)c(C(F)(F)F)c2)c2ccc(C3CC3)c(=O)[nH]2)N1` [Example 4-117, 3-Cyclopropyl-6-{(E)-1-[4-fluoro-3-(trifluoromethyl)phenyl]-2-[(2R)-5-oxopyrrolidin-2-yl]ethenyl}pyridin-2(1H)-one]: 500 to 3000 nM; `O=C1CC[C@H](/C=C(\c2ccc(SCCCO)c(Cl)c2)c2ccc(C(F)(F)F)c(=O)[nH]2)C1` [Example 1-82, 6-{(E)-1-{3-Chloro-4-[(3-hydroxypropyl)sulfanyl]phenyl}-2-[(1S)-3-oxocyclopentyl]ethenyl}-3-(trifluoromethyl)pyridin-2(1H)-one]: 10 to 500 nM; `O=C1CC[C@H](/C=C(\c2ccc(CC(F)(F)F)cc2)c2ccc(C3CC3)c(=O)[nH]2)N1` [Example 4-272, 3-Cyclopropyl-6-{(E)-2-[(2R)-5-oxopyrrolidin-2-yl]-1-[4-(2,2,2-trifluoroethyl)phenyl]ethenyl}pyridin-2(1H)-one]: 10 to 500 nM.
Next, `CSc1ccc(/C(=C\C2CCOCC2)c2ccc(C)c(=O)[nH]2)cc1Cl` [Example 1-55, 6-[(E)-1-[3-Chloro-4-(methylsulfanyl)phenyl]-2-(tetrahydro-2H-pyran-4-yl)ethenyl]-3-methylpyridin-2(1H)-one]: 500 to 3000 nM; `Cc1ccc(/C(=C/C2CCCC2)c2ccc(S(C)(=O)=O)cc2)[nH]c1=O` [Example 1-8, 6-{(E)-2-Cyclopentyl-1-[4-(methylsulfonyl)phenyl]ethenyl}-3-methylpyridin-2(1H)-one]: 500 to 3000 nM.
To `Cc1ccc(C(CC2CCCC2)c2ccc(S(=O)(=O)C3CC3)cc2)[nH]c1=O` (centres unmarked) [Example 2-3, 6-{2-Cyclopentyl-1-[4-(cyclopropylsulfonyl)phenyl]ethyl}-3-methylpyridin-2(1H)-one] belongs 10 to 500 nM; to `CS(=O)(=O)c1ccc(/C(=C\[C@H]2CCC(=O)C2)c2ccc(C3CC3)c(=O)[nH]2)cc1Cl` [Example 1-72, 6-{(E)-1-[3-Chloro-4-(methylsulfonyl)phenyl]-2-[(1S)-3-oxocyclopentyl]ethenyl}-3-cyclopropylpyridin-2(1H)-one], 10 to 500 nM.
The compound `CC(C)(C)c1ccc(/C(=C\[C@H]2CCC(=O)N2)c2ccc(-c3cn[nH]c3)c(=O)[nH]2)cc1` [Example 4-361, 6-{(E)-1-(4-tert-Butylphenyl)-2-[(2R)-5-oxopyrrolidin-2-yl]ethenyl}-3-(1H-pyrazol-4-yl)pyridin-2(1H)-one] registered an EC50 of 10 to 500 nM.
Next, `CC(C)(C)c1ccc(/C(=C\Cn2ncccc2=O)c2ccc(Cl)c(=O)[nH]2)cc1` [Example 6-33, 2-[(2E)-3-(4-tert-Butylphenyl)-3-(5-chloro-6-oxo-1,6-dihydropyridin-2-yl)prop-2-en-1-yl]pyridazin-3(2H)-one]: 500 to 3000 nM; `CCc1ccc(/C(=C\[C@H]2CCC(=O)C2)c2ccc(C3CC3)c(=O)[nH]2)cc1` [Example 1-58, 3-Cyclopropyl-6-{(E)-1-(4-ethylphenyl)-2-[(1S)-3-oxocyclopentyl]ethenyl}pyridin-2(1H)-one]: 10 to 500 nM; `O=C1CC[C@H](CC(c2ccc(Cl)cc2)c2ccc(C3CC3)c(=O)[nH]2)N1` (single isomer, unassigned) [Example 4-252]: 500 to 3000 nM.
Next, `O=C1CC[C@H](CC(c2ccc(S(=O)(=O)C3CC3)c(Cl)c2)c2ccc(C3CC3)c(=O)[nH]2)N1` (single isomer, unassigned) [Example 4-342]: 10 to 500 nM.
Next, `Cc1ccc(/C(=C/[C@H]2CCC(=O)C2)c2ccc(S(=O)(=O)C3CC3)cc2)[nH]c1=O` [Example 1-61, 6-{(E)-1-[4-(Cyclopropylsulfonyl)phenyl]-2-[(1S)-3-oxocyclopentyl]ethenyl}-3-methylpyridin-2(1H)-one]: 10 to 500 nM; `O=C1CC[C@H](CC(c2ccc(C(F)(F)F)c(Cl)c2)c2ccc(C3CC3)c(=O)[nH]2)N1` (single isomer, unassigned) [Example 4-254]: 10 to 500 nM.
`CC(C)(C)c1ccc(C(C[C@H]2CCC(=O)N2)c2ccc(C(F)(F)F)c(=O)[nH]2)cc1` (single isomer, unassigned) [Example 4-314] returned an EC50 of 500 to 3000 nM.
Next, `CC(C)c1ccc(/C(=C\[C@H]2CCC(=O)N2)c2ccc(Cl)c(=O)[nH]2)cc1` [Example 4-15, 3-Chloro-6-{(E)-2-[(2R)-5-oxopyrrolidin-2-yl]-1-[4-(propan-2-yl)phenyl]ethenyl}pyridin-2(1H)-one]: 10 to 500 nM; `O=C1CC[C@H](CC(c2ccc(Cl)c(C(F)(F)F)c2)c2ccc(C3CC3)c(=O)[nH]2)N1` (single isomer, unassigned) [Example 4-222]: 3000 to 10000 nM; `CC(C)Oc1ccc(C(C[C@H]2CCC(=O)N2)c2ccc(C3CC3)c(=O)[nH]2)cc1Cl` (single isomer, unassigned) [Example 4-322]: 10 to 500 nM.
To `CSc1ccc(/C(=C\[C@H]2CCC(=O)C2)c2ccc(C3CC3)c(=O)[nH]2)cc1` [Example 1-65, 3-Cyclopropyl-6-{(E)-1-[4-(methylsulfanyl)phenyl]-2-[(1S)-3-oxocyclopentyl]ethenyl}pyridin-2(1H)-one] belongs 10 to 500 nM; to `O=C1CC[C@H](/C=C(\c2ccc(C(F)F)c(F)c2)c2ccc(C3CC3)c(=O)[nH]2)N1` [Example 4-131, 3-Cyclopropyl-6-{(E)-1-[4-(difluoromethyl)-3-fluorophenyl]-2-[(2R)-5-oxopyrrolidin-2-yl]ethenyl}pyridin-2(1H)-one], 10 to 500 nM.
`Cc1ccc(/C(=C\[C@H]2CCC(=O)N2)c2ccc(C3CC3)c(=O)[nH]2)cc1F` [Example 4-114, 3-Cyclopropyl-6-{(E)-1-(3-fluoro-4-methylphenyl)-2-[(2R)-5-oxopyrrolidin-2-yl]ethenyl}pyridin-2(1H)-one] displayed a 50% effective concentration (EC50) of 10 to 500 nM.
Next, `Cc1ccc(C(CC2CCCC2)c2ccc(S(=O)(=O)CCCO)c(Cl)c2)[nH]c1=O` (centres unmarked) [Example 2-14, 6-(1-{3-Chloro-4-[(3-hydroxypropyl)sulfonyl]phenyl}-2-cyclopentylethyl)-3-methylpyridin-2(1H)-one]: 500 to 3000 nM; `O=c1[nH]c(/C(=C/C2CCOCC2)c2ccc(N3CCOCC3)cc2)ccc1Cl` [Example 1-111, 3-Chloro-6-[(E)-1-[4-(morpholin-4-yl)phenyl]-2-(tetrahydro-2H-pyran-4-yl)ethenyl]pyridin-2(1H)-one]: 3000 to 10000 nM.
To `CC(C)(C)c1ccc(/C(=C\[C@H]2CCC(=O)N2)c2ccc(CCCCO)c(=O)[nH]2)cc1` [Example 4-190, 6-{(E)-1-(4-tert-Butylphenyl)-2-[(2R)-5-oxopyrrolidin-2-yl]ethenyl}-3-(4-hydroxybutyl)pyridin-2(1H)-one] belongs 10 to 500 nM; to `O=C1CC[C@H](/C=C(/c2ccc(C3CC3)c(=O)[nH]2)c2ccc(Cl)cc2C(F)(F)F)N1` [Example 4-110, 6-{(E)-1-[4-Chloro-2-(trifluoromethyl)phenyl]-2-[(2R)-5-oxopyrrolidin-2-yl]ethenyl}-3-cyclopropylpyridin-2(1H)-one], 500 to 3000 nM; to `O=c1[nH]c(C(OC2CCCC2)c2ccc(S(=O)(=O)C3CC3)cc2)ccc1C(F)(F)F` (centres unmarked) [Example 7-2, 6-{(Cyclopentyloxy)[4-(cyclopropylsulfonyl)phenyl]methyl}-3-(trifluoromethyl)pyridin-2(1H)-one], 3000 to 10000 nM.
